Test results as given in patent publication US20240270720A1, “INDAZOLE YL BENZIMIDAZOLE DERIVATIVE OR PHARMACEUTICALLY ACCEPTABLE SALT THEREOF, AND USE THEREOF” (INDUSTRY-UNIVERSITY COOPERATION FOUNDATION HANYANG …, priority 2021, published 2024).

Key:
FYN = FYN (Homo sapiens, UniProt P06241); assay: Protein kinase profiling (Kinase HotSpot)
Experimental: (§1) Reaction Biology Corp. Kinase HotSpot SM service (www.reactionbiology.com) was used to determine IC50 values for all compounds and kinase profiles. The analysis protocol was as follows: In a final reaction volume of 25 μL, a peptide substrate, [[sequence]], 5 μM, ATP 10 μM, and FLT3(h) (5 to 10 mU) were incubated with 25 mM Tris pH 7.5, 0.02 mM EGTA, 0.66 mg/mL myelin basic protein, 10 mM Mg acetate and [γ-33P-ATP] (a concentration of approximately 500 cpm/pmol was required for specific activity). The reaction was initiated by adding the Mg-ATP mixture. After incubation at room temperature for 40 minutes, the reaction was stopped by adding 5 μL of a 3% phosphoric acid solution. Thereafter, 10 μL of the reactant was spotted on a P30 filter mat and washed three times for 5 minutes in 75 mM phosphoric acid and once in methanol before drying and scintillation counting.

ROS/ROS1 = ROS/ROS1 (Homo sapiens, UniProt P08922); assay: Protein kinase profiling (Kinase HotSpot)
Experimental: (§2) The analysis protocol was as follows: In a final reaction volume of 25 μL, a peptide substrate, [[sequence]], 5 μM, ATP 10 μM, and FLT3(h) (5 to 10 mU) were incubated with 25 mM Tris pH 7.5, 0.02 mM EGTA, 0.66 mg/mL myelin basic protein, 10 mM Mg acetate and [γ-33P-ATP] (a concentration of approximately 500 cpm/pmol was required for specific activity). The reaction was initiated by adding the Mg-ATP mixture. After incubation at room temperature for 40 minutes, the reaction was stopped by adding 5 μL of a 3% phosphoric acid solution. Thereafter, 10 μL of the reactant was spotted on a P30 filter mat and washed three times for 5 minutes in 75 mM phosphoric acid and once in methanol before drying and scintillation counting.

FGFR3 = FGFR3 (Homo sapiens, UniProt P22607); assay: Protein kinase profiling (Kinase HotSpot)
Experimental: as §1

FLT3-ITD = FLT3-ITD (Homo sapiens, UniProt P36888); assay: Protein kinase profiling (Kinase HotSpot); type: biochemical; settings: single dose 1 μM
RON/MST1R = molecular target: T1, RON/MST1R (Homo sapiens, UniProt Q04912); assay: Protein kinase profiling (Kinase HotSpot); type: biochemical; settings: single dose 1 μM
T1 construct: purchased Reaction Biology Corp. (Kinase HotSpot service)
Experimental: as §2

c-MET = molecular target: T2, c-MET (Homo sapiens, UniProt P08581); assay: Protein kinase profiling (Kinase HotSpot); type: biochemical; settings: single dose 1 μM
T2 construct: purchased Reaction Biology Corp. (Kinase HotSpot service)
Experimental: as §2

GSK3b = GSK3b (Homo sapiens, UniProt P49841); assay: Protein kinase profiling (Kinase HotSpot)
Experimental: as §1

KDR/VEGFR2 = molecular target: T3, KDR/VEGFR2 (Homo sapiens, UniProt P35968); assay: Protein kinase profiling (Kinase HotSpot); type: biochemical; settings: single dose 1 μM
T3 construct: purchased Reaction Biology Corp. (Kinase HotSpot service)
Experimental: as §2

Aurora A = Aurora A (Homo sapiens, UniProt O14965); assay: Protein kinase profiling (Kinase HotSpot)
Experimental: as §1

ERK1 = molecular target: T4, ERK1 (Homo sapiens, UniProt P27361); assay: Protein kinase profiling (Kinase HotSpot); type: biochemical
T4 construct: purchased Reaction Biology Corp. (Kinase HotSpot service)
Experimental: as §2

TRKC = molecular target: T5, TRKC (Homo sapiens, UniProt Q16288); assay: Protein kinase profiling (Kinase HotSpot); type: biochemical
T5 construct: purchased Reaction Biology Corp. (Kinase HotSpot service)
Experimental: as §1

c-Kit = c-Kit (Homo sapiens, UniProt P10721); assay: Protein kinase profiling (Kinase HotSpot)
Experimental: as §1

BRAF (V599E) = molecular target: T6, BRAF (V599E) (Homo sapiens, UniProt P15056, V600E); assay: Protein kinase profiling (Kinase HotSpot); type: biochemical
T6 construct: purchased Reaction Biology Corp. (Kinase HotSpot service)
Experimental: as §1

IGF1R = molecular target: T7, IGF1R (Homo sapiens, UniProt P08069); assay: Protein kinase profiling (Kinase HotSpot); type: biochemical; settings: single dose 1 μM
T7 construct: purchased Reaction Biology Corp. (Kinase HotSpot service)
Experimental: as §1

BTK = molecular target: T8, BTK (Homo sapiens, UniProt Q06187); assay: Protein kinase profiling (Kinase HotSpot); type: biochemical; settings: single dose 1 μM
T8 construct: purchased Reaction Biology Corp. (Kinase HotSpot service)
Experimental: as §1

TYRO3/SKY = molecular target: T9, TYRO3/SKY (Homo sapiens, UniProt Q06418); assay: Protein kinase profiling (Kinase HotSpot); type: biochemical; settings: single dose 1 μM
T9 construct: purchased Reaction Biology Corp. (Kinase HotSpot service)

PKA = PKA (Homo sapiens, UniProt P17612); assay: Protein kinase profiling (Kinase HotSpot)
Experimental: as §2

CAMKK1 = molecular target: T10, CAMKK1 (Homo sapiens, UniProt Q8N5S9); assay: Protein kinase profiling (Kinase HotSpot); type: biochemical
T10 construct: purchased Reaction Biology Corp. (Kinase HotSpot service)
Experimental: as §1

AXL = molecular target: T11, AXL (Homo sapiens, UniProt P30530); assay: Protein kinase profiling (Kinase HotSpot); type: biochemical; settings: single dose 1 μM
T11 construct: purchased Reaction Biology Corp. (Kinase HotSpot service)
Experimental: as §1

LYN = LYN (Homo sapiens, UniProt P07948); assay: Protein kinase profiling (Kinase HotSpot)
Experimental: as §2

PLK1 = molecular target: T12, PLK1 (Homo sapiens, UniProt P53350); assay: Protein kinase profiling (Kinase HotSpot); type: biochemical; settings: single dose 1 μM
T12 construct: purchased Reaction Biology Corp. (Kinase HotSpot service)
Experimental: as §2

SYK = molecular target: T13, SYK (Homo sapiens, UniProt P43405); assay: Protein kinase profiling (Kinase HotSpot); type: biochemical; settings: single dose 1 μM
T13 construct: purchased Reaction Biology Corp. (Kinase HotSpot service)
Experimental: as §2

LCK = molecular target: T14, LCK (Homo sapiens, UniProt P06239); assay: Protein kinase profiling (Kinase HotSpot); type: biochemical; settings: single dose 1 μM
T14 construct: purchased Reaction Biology Corp. (Kinase HotSpot service)
Experimental: as §2

MEK1 = molecular target: T15, MEK1 (Homo sapiens, UniProt Q02750); assay: Protein kinase profiling (Kinase HotSpot); type: biochemical; settings: single dose 1 μM
T15 construct: purchased Reaction Biology Corp. (Kinase HotSpot service)
Experimental: as §2

AKT1 = molecular target: T16, AKT1 (Homo sapiens, UniProt P31749); assay: Protein kinase profiling (Kinase HotSpot); type: biochemical; settings: single dose 1 μM
T16 construct: purchased Reaction Biology Corp. (Kinase HotSpot service)
Experimental: as §1

FLT3 (ITD)-NPOS = FLT3 (ITD)-NPOS (Homo sapiens, UniProt P36888); assay: Kinase HotSpot radiometric kinase assay (Reaction Biology); type: biochemical; settings: single dose 1 μM
Experimental: Reaction Biology Corp. Kinase HotSpot SM service (www.reactionbiology.com) was used to determine IC50 values for all compounds and kinase profiles. […] The reaction was initiated by adding the Mg-ATP mixture. After incubation at room temperature for 40 minutes, the reaction was stopped by adding 5 μL of a 3% phosphoric acid solution. Thereafter, 10 μL of the reactant was spotted on a P30 filter mat and washed three times for 5 minutes in 75 mM phosphoric acid and once in methanol before drying and scintillation counting.

ALK = molecular target: T17, ALK (Homo sapiens, UniProt Q9UM73); assay: Protein kinase profiling (Kinase HotSpot); type: biochemical; settings: single dose 1 μM
T17 construct: purchased Reaction Biology Corp. (Kinase HotSpot service)
Experimental: as §1

ABL1 = molecular target: T18, ABL1 (Homo sapiens, UniProt P00519); assay: Protein kinase profiling (Kinase HotSpot); type: biochemical
T18 construct: purchased Reaction Biology Corp. (Kinase HotSpot service)
Experimental: as §1

c-Src = molecular target: T19, c-Src (Homo sapiens, UniProt P12931); assay: Protein kinase profiling (Kinase HotSpot); type: biochemical; settings: single dose 1 μM
T19 construct: purchased Reaction Biology Corp. (Kinase HotSpot service)
Experimental: as §2

EGFR = molecular target: T20, EGFR (Homo sapiens, UniProt P00533); assay: Protein kinase profiling (Kinase HotSpot); type: biochemical; settings: single dose 1 μM
T20 construct: purchased Reaction Biology Corp. (Kinase HotSpot service)
Experimental: as §2

c-MER = molecular target: T21, c-MER (Homo sapiens, UniProt Q12866); assay: Protein kinase profiling (Kinase HotSpot); type: biochemical; settings: single dose 1 μM
T21 construct: purchased Reaction Biology Corp. (Kinase HotSpot service)
Experimental: as §2

most other kinases = assay: Protein kinase profiling, 42 different kinases (summary); type: biochemical; settings: 1 μM; kinases of the 42-kinase panel other than FLT3
AXL (R499C) = molecular target: T22, AXL (R499C) (Homo sapiens, UniProt P30530, R499C); assay: Protein kinase profiling (Kinase HotSpot); type: biochemical; settings: single dose 1 μM
T22 construct: purchased Reaction Biology Corp. (Kinase HotSpot service)
Experimental: as §1

JAK3 = JAK3 (Homo sapiens, UniProt P52333); assay: Protein kinase profiling (Kinase HotSpot)
Experimental: as §2

FLT3 (R595_E596 ins EY) = molecular target: T23, FLT3 (R595_E596 ins EY) (Homo sapiens, UniProt P36888, INS595EY); assay: Kinase HotSpot radiometric kinase assay (Reaction Biology); type: biochemical
T23 construct: purchased Reaction Biology Corp. (Kinase HotSpot service)
Experimental: as §1

[1] = molecular target: T24, FLT3 (Y591_V592 ins VDFREYEYD) (Homo sapiens, UniProt P36888, INS591VDFREYEYD); assay: as above; type: biochemical
T24 construct: purchased Reaction Biology Corp. (Kinase HotSpot service)
Experimental: as §1

FMS = molecular target: T25, FMS (Homo sapiens, UniProt P07333); assay: Protein kinase profiling (Kinase HotSpot); type: biochemical; settings: single dose 1 μM
T25 construct: purchased Reaction Biology Corp. (Kinase HotSpot service)
Experimental: as §1

Chain of c-Kit (P10721 26-976): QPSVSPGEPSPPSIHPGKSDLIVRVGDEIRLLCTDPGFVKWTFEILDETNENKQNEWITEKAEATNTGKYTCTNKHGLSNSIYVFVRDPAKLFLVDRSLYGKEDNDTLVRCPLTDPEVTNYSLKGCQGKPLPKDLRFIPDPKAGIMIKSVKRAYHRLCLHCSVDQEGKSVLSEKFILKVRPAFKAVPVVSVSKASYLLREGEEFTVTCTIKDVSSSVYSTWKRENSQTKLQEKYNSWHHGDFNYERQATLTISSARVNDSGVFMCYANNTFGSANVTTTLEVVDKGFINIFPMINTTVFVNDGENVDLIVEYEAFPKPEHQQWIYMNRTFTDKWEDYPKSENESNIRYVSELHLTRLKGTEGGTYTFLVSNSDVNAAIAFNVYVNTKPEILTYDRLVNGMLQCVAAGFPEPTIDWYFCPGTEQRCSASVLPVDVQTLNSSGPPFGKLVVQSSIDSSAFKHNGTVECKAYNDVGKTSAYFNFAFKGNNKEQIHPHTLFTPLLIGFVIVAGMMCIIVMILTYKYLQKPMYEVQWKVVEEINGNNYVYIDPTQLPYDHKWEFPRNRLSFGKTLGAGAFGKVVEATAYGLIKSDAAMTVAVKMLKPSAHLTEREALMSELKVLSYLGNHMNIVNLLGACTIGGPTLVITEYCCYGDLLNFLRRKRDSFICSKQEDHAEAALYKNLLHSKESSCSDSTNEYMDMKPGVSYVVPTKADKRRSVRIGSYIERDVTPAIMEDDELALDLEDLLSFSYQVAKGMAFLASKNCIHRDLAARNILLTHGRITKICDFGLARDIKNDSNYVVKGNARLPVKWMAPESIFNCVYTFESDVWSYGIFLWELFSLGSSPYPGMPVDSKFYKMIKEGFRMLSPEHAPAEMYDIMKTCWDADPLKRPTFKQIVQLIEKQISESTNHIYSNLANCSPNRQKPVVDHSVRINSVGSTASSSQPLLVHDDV
T5 sequence (Q16288 32-839): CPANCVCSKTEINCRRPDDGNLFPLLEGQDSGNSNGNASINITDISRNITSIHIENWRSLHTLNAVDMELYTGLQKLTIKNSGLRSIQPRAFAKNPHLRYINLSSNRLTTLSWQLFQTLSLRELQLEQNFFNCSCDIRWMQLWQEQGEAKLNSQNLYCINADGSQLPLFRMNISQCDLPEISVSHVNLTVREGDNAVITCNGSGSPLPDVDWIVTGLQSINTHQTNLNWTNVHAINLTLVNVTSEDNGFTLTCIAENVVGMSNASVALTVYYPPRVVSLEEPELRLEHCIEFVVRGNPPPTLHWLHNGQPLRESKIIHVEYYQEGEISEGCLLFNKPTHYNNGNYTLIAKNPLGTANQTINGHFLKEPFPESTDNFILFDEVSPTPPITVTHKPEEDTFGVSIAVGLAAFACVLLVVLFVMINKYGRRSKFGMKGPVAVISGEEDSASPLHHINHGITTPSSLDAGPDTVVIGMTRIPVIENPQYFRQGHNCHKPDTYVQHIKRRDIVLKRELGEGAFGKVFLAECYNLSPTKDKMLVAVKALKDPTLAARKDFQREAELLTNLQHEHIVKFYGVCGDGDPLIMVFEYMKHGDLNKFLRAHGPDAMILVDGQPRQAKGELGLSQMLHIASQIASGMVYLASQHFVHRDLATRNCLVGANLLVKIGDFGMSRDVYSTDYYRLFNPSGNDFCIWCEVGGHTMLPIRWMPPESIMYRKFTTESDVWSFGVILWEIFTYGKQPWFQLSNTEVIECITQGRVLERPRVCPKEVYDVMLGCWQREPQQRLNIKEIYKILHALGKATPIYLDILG
T18 sequence (P00519 whole entry): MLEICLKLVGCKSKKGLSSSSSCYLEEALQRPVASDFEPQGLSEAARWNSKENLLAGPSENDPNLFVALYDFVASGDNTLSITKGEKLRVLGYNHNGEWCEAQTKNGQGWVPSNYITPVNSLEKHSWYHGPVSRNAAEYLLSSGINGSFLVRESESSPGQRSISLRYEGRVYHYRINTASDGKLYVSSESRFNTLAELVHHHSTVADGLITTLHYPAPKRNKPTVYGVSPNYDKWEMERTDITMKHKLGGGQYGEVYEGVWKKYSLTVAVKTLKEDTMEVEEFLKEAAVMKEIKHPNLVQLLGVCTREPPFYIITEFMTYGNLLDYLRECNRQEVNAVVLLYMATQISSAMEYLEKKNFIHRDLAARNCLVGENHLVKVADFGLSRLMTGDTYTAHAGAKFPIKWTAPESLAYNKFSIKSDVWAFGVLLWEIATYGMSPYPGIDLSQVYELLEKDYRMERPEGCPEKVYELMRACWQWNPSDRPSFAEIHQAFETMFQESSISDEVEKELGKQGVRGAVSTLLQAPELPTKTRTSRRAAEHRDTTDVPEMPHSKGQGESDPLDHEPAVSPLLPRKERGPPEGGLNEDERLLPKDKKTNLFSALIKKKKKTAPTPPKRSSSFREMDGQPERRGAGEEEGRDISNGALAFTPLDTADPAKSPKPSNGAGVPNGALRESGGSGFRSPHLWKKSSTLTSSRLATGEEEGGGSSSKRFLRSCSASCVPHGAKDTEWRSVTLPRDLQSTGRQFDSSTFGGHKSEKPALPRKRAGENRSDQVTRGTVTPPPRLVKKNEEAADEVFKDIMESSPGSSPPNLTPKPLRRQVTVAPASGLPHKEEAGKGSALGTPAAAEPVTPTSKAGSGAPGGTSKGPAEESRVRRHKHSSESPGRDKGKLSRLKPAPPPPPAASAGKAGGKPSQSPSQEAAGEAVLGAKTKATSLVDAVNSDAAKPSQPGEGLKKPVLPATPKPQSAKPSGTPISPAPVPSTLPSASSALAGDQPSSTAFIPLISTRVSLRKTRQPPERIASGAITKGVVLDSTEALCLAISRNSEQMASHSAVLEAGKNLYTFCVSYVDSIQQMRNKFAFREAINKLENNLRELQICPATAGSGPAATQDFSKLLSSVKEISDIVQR
T24 sequence (P36888 with tags, fused parts or gaps with the stated changes limits assumed): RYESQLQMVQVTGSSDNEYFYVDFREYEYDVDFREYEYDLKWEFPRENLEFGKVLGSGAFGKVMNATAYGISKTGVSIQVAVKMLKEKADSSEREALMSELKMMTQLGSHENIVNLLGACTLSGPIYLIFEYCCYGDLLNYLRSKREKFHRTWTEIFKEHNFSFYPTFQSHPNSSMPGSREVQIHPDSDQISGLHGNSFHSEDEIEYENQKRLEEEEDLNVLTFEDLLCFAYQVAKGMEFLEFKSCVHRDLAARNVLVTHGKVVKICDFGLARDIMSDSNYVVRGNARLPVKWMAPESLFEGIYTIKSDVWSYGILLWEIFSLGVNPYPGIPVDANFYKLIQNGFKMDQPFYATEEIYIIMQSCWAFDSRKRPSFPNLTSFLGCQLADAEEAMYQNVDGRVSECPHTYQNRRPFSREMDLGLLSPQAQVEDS
T10 sequence (Q8N5S9 whole entry): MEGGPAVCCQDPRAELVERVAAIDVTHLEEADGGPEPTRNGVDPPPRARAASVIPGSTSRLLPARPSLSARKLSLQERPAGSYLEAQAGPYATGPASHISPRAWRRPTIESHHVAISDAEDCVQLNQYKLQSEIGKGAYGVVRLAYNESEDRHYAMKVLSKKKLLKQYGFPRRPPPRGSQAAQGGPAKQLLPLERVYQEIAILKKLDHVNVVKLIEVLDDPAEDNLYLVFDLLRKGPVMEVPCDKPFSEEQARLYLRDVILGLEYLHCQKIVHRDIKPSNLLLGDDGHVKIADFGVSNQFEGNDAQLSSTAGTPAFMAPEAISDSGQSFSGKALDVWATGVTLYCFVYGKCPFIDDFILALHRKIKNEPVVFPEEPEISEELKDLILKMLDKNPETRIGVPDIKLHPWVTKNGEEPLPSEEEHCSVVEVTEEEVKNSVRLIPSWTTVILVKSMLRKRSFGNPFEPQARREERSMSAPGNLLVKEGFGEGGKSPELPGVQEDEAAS
T23 sequence (P36888 with tags, fused parts or gaps INS595EY limits assumed): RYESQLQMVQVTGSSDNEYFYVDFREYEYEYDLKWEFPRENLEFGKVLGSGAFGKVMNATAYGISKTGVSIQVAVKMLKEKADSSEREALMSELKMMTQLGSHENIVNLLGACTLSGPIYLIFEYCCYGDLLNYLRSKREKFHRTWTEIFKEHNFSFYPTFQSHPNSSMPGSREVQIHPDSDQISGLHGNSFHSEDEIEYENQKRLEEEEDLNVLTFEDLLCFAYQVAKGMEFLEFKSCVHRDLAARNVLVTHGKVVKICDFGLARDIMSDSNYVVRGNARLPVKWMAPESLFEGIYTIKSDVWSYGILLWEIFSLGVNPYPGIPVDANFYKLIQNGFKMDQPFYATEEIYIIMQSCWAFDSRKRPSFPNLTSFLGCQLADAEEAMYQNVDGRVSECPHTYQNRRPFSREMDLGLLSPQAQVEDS
Chain of GSK3b (P49841 whole entry): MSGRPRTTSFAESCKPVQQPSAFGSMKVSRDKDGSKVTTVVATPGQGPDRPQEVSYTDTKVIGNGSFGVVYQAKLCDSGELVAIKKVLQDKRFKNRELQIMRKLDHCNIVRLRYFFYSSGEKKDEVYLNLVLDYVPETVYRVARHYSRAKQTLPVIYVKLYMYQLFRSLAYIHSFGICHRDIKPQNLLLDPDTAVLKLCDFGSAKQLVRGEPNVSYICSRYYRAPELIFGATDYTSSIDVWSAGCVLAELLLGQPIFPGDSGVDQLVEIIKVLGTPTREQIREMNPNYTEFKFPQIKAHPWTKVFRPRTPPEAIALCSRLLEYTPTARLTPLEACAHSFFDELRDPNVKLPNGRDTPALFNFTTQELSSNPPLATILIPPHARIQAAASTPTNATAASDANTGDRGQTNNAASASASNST
T6 sequence (P15056 416-766 V600E limits assumed): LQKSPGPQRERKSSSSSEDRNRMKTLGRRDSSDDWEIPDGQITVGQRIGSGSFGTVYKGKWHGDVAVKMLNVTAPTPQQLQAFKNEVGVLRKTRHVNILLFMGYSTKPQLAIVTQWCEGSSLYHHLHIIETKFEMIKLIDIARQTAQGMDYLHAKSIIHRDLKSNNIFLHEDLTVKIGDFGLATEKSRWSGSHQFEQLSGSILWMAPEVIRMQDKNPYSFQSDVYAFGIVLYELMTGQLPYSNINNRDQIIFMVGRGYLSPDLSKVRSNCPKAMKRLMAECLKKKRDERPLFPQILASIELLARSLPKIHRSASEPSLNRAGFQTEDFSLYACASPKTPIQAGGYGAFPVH

`CCN1CCN(Cc2cc(C(=O)Nc3ccc4[nH]c(-c5ccc6cn[nH]c6c5)nc4c3)cc(C(F)(F)F)c2)CC1` [Compound 8r, N-(2-(1H-indazol-6-yl)-1H-benzo[di]imidazol-5-yl)-3-((4-ethylpiperazin-1-yl)methyl)-5-(trifluoromethyl)benzamide] gave an inhibition at 1 µM (FYN) of 18%, an inhibition at 1 µM (ROS/ROS1) of 7.4% and an inhibition at 1 µM (FGFR3) of 0%. The “% Inhibition” value (FLT3-ITD) was 88.0%, the inhibition at 1 µM (RON/MST1R) was 6.99% and the inhibition at 1 µM (c-MET) was 6.53%. It also gave an inhibition at 1 µM (GSK3b) of 7.25%, an inhibition at 1 µM (KDR/VEGFR2) of 7.12% and an inhibition at 1 µM (Aurora A) of 7.47%. For the same compound, the inhibition at 1 µM (ERK1) was 0%, the inhibition at 1 µM (TRKC; TRKC, single dose 1 μM) was 48.3% and the IC50 (TRKC; Table 4) was 1520 nM. For the same compound, the inhibition at 1 µM (c-Kit) was 19%, the IC50 (c-Kit; read-out: IC50 c-Kit, Table 4) was 4.57 µM and the inhibition at 1 µM (BRAF (V599E)) was 1%. The inhibition at 1 µM (IGF1R) was 6.14%, the inhibition at 1 µM (BTK) was 17.5% and the inhibition at 1 µM (TYRO3/SKY) was 9.76%. It also gave an inhibition at 1 µM (PKA) of 7.34%, an inhibition at 1 µM (CAMKK1; CAMKK1, single dose 1 μM) of 32.5% and an IC50 (CAMKK1; Table 4) of 395 nM. It also gave an inhibition at 1 µM (AXL) of 1.88%, an inhibition at 1 µM (LYN) of 7.4% and an inhibition at 1 µM (PLK1) of 5.39%. For the same compound, the inhibition at 1 µM (SYK) was 6.01%, the inhibition at 1 µM (LCK) was 0% and the inhibition at 1 µM (MEK1) was 5.69%. The inhibition at 1 µM (AKT1) was 3.09%, the “% Inhibition” value (FLT3 (ITD)-NPOS) was 88.0% and the inhibition at 1 µM (ALK) was 7.5%. For the same compound, the inhibition at 1 µM (ABL1; ABL1, single dose 1 μM) was 18.4%, the IC50 (ABL1; Table 4) was 3.09 µM and the inhibition at 1 µM (c-Src) was 1.94%. For the same compound, the inhibition at 1 µM (EGFR) was 0.274%, the inhibition at 1 µM (c-MER) was 7.3% and the “inhibitory activity for most other kinases” value (most other kinases) was “less than 20%”. The melting point was 265 to 267 °C, the inhibition at 1 µM (AXL (R499C)) was 6.64% and the inhibition at 1 µM (JAK3) was 6.42%. The IC50 (FLT3 (R595_E596 ins EY)) was 24.8 nM, the inhibition at 1 µM (FLT3 (R595_E596 ins EY); FLT3 (R595_E596insEY), single dose 1 μM) was 93.9% and the inhibition at 1 µM ([1]; FLT3 (Y591_V592ins[…]), single dose 1 μM) was 90.9%. For the same compound, the IC50 ([1]; read-out: IC50 FLT3 (Y591_V592 ins VDFREYEYD)) was 49.5 nM and the inhibition at 1 µM (FMS) was 0.531%.
